Source: patent publication US7491728B2, “Pyrimidinone compounds as calcilytics” (SmithKline Beecham Corp., priority 2004, dated 2009)

Assay: Bolus i.v. injection in normal conscious rats: plasma PTH and ionized calcium levels
Type: in vivo, male Sprague-Dawley rats
Method: FIG. 1 is a graph which depicts the effect of bolus i.v. injection of the compound of Example 9 on plasma PTH levels in normal rats.
5-Ethyl-3-[2-(2-fluoro-phenyl)-ethyl]-2-(2-hydroxy-phenyl)-6-methyl-3H-pyrimidin-4-one (1 or 3 μmol/kg) or vehicle was administered by intravenous injection over about 15 seconds to normal conscious male Sprague-Dawley rats with chronic indwelling arterial and venous catheters. Arterial blood samples were collected at 30 min and immediately before, and at 1, 5, 10, and 30 min after the start of the injection for measurement of the levels of parathyroid hormone (PTH) and ionized calcium (Ca^2+) in plasma. PTH was measured using a specific rat PTH (1-84) ELISA (Immutopics, San Clemente, Calif.). […] Plasma PTH levels had returned to pre-dose levels by 10 min after the injection (FIG. 1).

## CCc1c(C)nc(-c2ccccc2O)n(CCc2ccccc2F)c1=O [Example 9, 5-Ethyl-3-[2-(2-fluoro-phenyl)-ethyl]-2-(2-hydroxy-phenyl)-6-methyl-3H-pyrimidin-4-one]
1 or 3 μmol/kg i.v. over about 15 seconds, normal conscious male Sprague-Dawley rats, rat PTH (1-84) ELISA, FIG. 1
  effect on plasma PTH levels: rapid, but transient dose-related increase
1 or 3 μmol/kg i.v., rats
  time after injection at which plasma PTH levels were maximal: 1 min
  time after injection by which plasma PTH levels had returned to pre-dose levels: ≤ 10 min
1 or 3 μmol/kg i.v., rats, samples up to 30 min after injection (not shown)
  changes in plasma Ca2+ levels: no consistent changes
